Experiments:
Assay in all cases: Test B pre-/postemergence plant response
Assay type in all cases: in vivo
[1] = system: Surinam grass (Brachiaria decumbens)
Outline: (§1)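 Seeds were sown in loam soil/sand blend and treated preemergence with compound in non-phytotoxic solvent mixture containing surfactant; postemergence sprays, same formulation, went onto plants 2 to 18 cm (1- to 4-leaf stage) in peat-based planting medium. Greenhouse 13 to 15 days, then visual rating versus untreated controls, 0 (no effect) to 100 (complete control).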

[2] = system: cocklebur (Xanthium strumarium)
Outline: as §1

[3] = system: galium (catchweed bedstraw, Galium aparine); conditions: Preemergence; for Galium plant response rating: 125 g ai/ha
Outline: as §1

kochia (Kochia scoparia) = system: kochia (Kochia scoparia)
Outline: as §1

[4] = system: lambsquarters (Chenopodium album)
Outline: as §1

[5] = system: large crabgrass (Digitaria sanguinalis)
Outline: as §1

[6] = system: nightshade (eastern black nightshade, Solanum ptycanthum); conditions: Preemergence; for Nightshade plant response rating: 125 g ai/ha
Outline: as §1

[7] = system: sunflower (common oilseed sunflower, Helianthus annuus); conditions: Preemergence; for Sunflower plant response rating: 125 g ai/ha
Outline: as §1

wild oat (Avena fatua) = system: wild oat (Avena fatua)
Outline: as §1

[8] = system: woolly cupgrass (Eriochloa villosa)
Outline: as §1

[9] = system: yellow nutsedge (Cyperus esculentus)
Outline: as §1

[10] = system: goosegrass (Eleusine indica); conditions: Preemergence, 62 g ai/ha; scale 0 to 100, 0 no effect, 100 complete control
[11] = 250 g ai/ha, Preemergence, 0 to 100 scale
[12] = Postemergence, 31 g ai/ha, scale 0 to 100 (0 no effect, 100 complete control)
[13] = Postemergence, 62 g ai/ha, scale 0 (no effect) to 100 (complete control), 13 to 15 days
[14] = Postemergence, 125 g ai/ha, visual rating after 13 to 15 days, scale 0 (no effect) to 100 (complete control)
[15] = Postemergence, 250 g ai/ha, scale 0 to 100
[16] = Preemergence, 31 g ai/ha, scale 0 to 100 (0 no effect, 100 complete control)
[17] = Preemergence, 62 g ai/ha, scale 0 to 100, 0 no effect, 100 complete control
[18] = Preemergence, 125 g ai/ha, 0 to 100 scale
[19] = 31 g ai/ha, scale 0 to 100 (0 no effect, 100 complete control)
[20] = 62 g ai/ha, scale 0 to 100, 0 no effect, 100 complete control

5-[(2-hydroxy-6-oxo-1-cyclohexen-1-yl)carbonyl]-3-(2-methoxyethyl)-2-(3-thienyl)-4(3H)-pyrimidinone [Compound 97]
Plant response rating, Surinam Grass [1, 11]: 80 | Plant response rating, Surinam Grass [1, 12]: 60 | Plant response rating, Surinam Grass [1, 13]: 70 | Plant response rating, Surinam Grass [1, 14]: 70 | Surinam Grass plant response rating [1, 15]: 80 | Plant response rating, Surinam Grass [1, 16]: 0 | Plant response rating, Surinam Grass [1, 17]: 10 | Surinam Grass plant response rating [1, 18]: 15 | Plant response rating, Cocklebur [2, 11]: 98 | Plant response rating, Cocklebur [2, 12]: 70 | Plant response rating, Cocklebur [2, 13]: 90 | Plant response rating, Cocklebur [2, 14]: 95 | Cocklebur plant response rating [2, 15]: 98 | Plant response rating, Cocklebur [2, 16]: 0 | Plant response rating, Cocklebur [2, 17]: 15 | Cocklebur plant response rating [2, 18]: 65 | Plant response rating, Galium ([3]; 250 g ai/ha, 0 to 100 scale): 85 | Plant response rating, Galium [3, 19]: 0 | Plant response rating, Galium [3, 20]: 10 | Galium plant response rating ([3]; 0 to 100 scale): 85 | Plant response rating, Kochia (kochia (Kochia scoparia); [11]): 100 | Plant response rating, Kochia (kochia (Kochia scoparia); [12]): 10 | Plant response rating, Kochia (kochia (Kochia scoparia); [13]): 15 | Plant response rating, Kochia (kochia (Kochia scoparia); [14]): 15 | Kochia plant response rating (kochia (Kochia scoparia); [15]): 20 | Plant response rating, Kochia (kochia (Kochia scoparia); [16]): 0 | Plant response rating, Kochia (kochia (Kochia scoparia); [17]): 50 | Kochia plant response rating (kochia (Kochia scoparia); [18]): 100 | Plant response rating, Lambsquarters [4, 11]: 100 | Plant response rating, Lambsquarters [4, 12]: 80 | Plant response rating, Lambsquarters [4, 13]: 80 | Plant response rating, Lambsquarters [4, 14]: 90 | Lambsquarters plant response rating [4, 15]: 95 | Plant response rating, Lambsquarters [4, 16]: 100 | Plant response rating, Lambsquarters [4, 17]: 100 | Lambsquarters plant response rating [4, 18]: 100 | Plant response rating, Crabgrass, Large [5, 11]: 95 | Plant response rating, Crabgrass, Large [5, 12]: 65 | Plant response rating, Crabgrass, Large [5, 13]: 70 | Plant response rating, Crabgrass, Large [5, 14]: 75 | Crabgrass, Large plant response rating [5, 15]: 80 | Plant response rating, Crabgrass, Large [5, 16]: 0 | Plant response rating, Crabgrass, Large [5, 17]: 0 | Crabgrass, Large plant response rating [5, 18]: 70 | Plant response rating, Nightshade ([6]; 250 g ai/ha, 0 to 100 scale): 100 | Plant response rating, Nightshade [6, 19]: 100 | Plant response rating, Nightshade [6, 20]: 100 | Nightshade plant response rating ([6]; 0 to 100 scale): 100 | Plant response rating, Sunflower ([7]; 250 g ai/ha, 0 to 100 scale): 98 | Plant response rating, Sunflower [7, 19]: 0 | Plant response rating, Sunflower [7, 20]: 80 | Sunflower plant response rating ([7]; 0 to 100 scale): 95 | Plant response rating, Oat, Wild (wild oat (Avena fatua); [11]): 10 | Plant response rating, Oat, Wild (wild oat (Avena fatua); [12]): 0 | Plant response rating, Oat, Wild (wild oat (Avena fatua); [13]): 5 | Plant response rating, Oat, Wild (wild oat (Avena fatua); [14]): 20 | Oat, Wild plant response rating (wild oat (Avena fatua); [15]): 40 | Plant response rating, Oat, Wild (wild oat (Avena fatua); [16]): 0 | Plant response rating, Oat, Wild (wild oat (Avena fatua); [17]): 0 | Oat, Wild plant response rating (wild oat (Avena fatua); [18]): 0 | Plant response rating, Cupgrass, Woolly [8, 11]: 40 | Plant response rating, Cupgrass, Woolly [8, 12]: 60 | Plant response rating, Cupgrass, Woolly [8, 13]: 70 | Plant response rating, Cupgrass, Woolly [8, 14]: 70 | Cupgrass, Woolly plant response rating [8, 15]: 75 | Plant response rating, Cupgrass, Woolly [8, 16]: 0 | Plant response rating, Cupgrass, Woolly [8, 17]: 10 | Cupgrass, Woolly plant response rating [8, 18]: 35 | Plant response rating, Nutsedge, Yellow [9, 11]: 75 | Plant response rating, Nutsedge, Yellow [9, 12]: 15 | Plant response rating, Nutsedge, Yellow [9, 13]: 55 | Plant response rating, Nutsedge, Yellow [9, 14]: 60 | Nutsedge, Yellow plant response rating [9, 15]: 75 | Plant response rating, Nutsedge, Yellow [9, 16]: 0 | Plant response rating, Nutsedge, Yellow [9, 17]: 0 | Nutsedge, Yellow plant response rating [9, 18]: 55 | Plant response rating, Goosegrass [10]: 75

5-[(2-hydroxy-6-oxo-1-cyclohexen-1-yl)carbonyl]-3-phenyl-2-(3-pyridinyl)-4(3H)-pyrimidone [Compound 113]
Plant response rating, Surinam Grass [1, 11]: 10 | Plant response rating, Surinam Grass [1, 12]: 0 | Plant response rating, Surinam Grass [1, 13]: 10 | Plant response rating, Surinam Grass [1, 14]: 20 | Surinam Grass plant response rating [1, 15]: 25 | Plant response rating, Surinam Grass [1, 16]: 0 | Plant response rating, Surinam Grass [1, 17]: 0 | Surinam Grass plant response rating [1, 18]: 0 | Plant response rating, Cocklebur [2, 11]: 75 | Plant response rating, Cocklebur [2, 12]: 45 | Plant response rating, Cocklebur [2, 13]: 45 | Plant response rating, Cocklebur [2, 14]: 65 | Cocklebur plant response rating [2, 15]: 70 | Plant response rating, Cocklebur [2, 16]: 0 | Plant response rating, Cocklebur [2, 17]: 0 | Cocklebur plant response rating [2, 18]: 0 | Plant response rating, Galium ([3]; 250 g ai/ha, 0 to 100 scale): 0 | Plant response rating, Galium [3, 19]: 0 | Plant response rating, Galium [3, 20]: 0 | Galium plant response rating ([3]; 0 to 100 scale): 0 | Plant response rating, Kochia (kochia (Kochia scoparia); [11]): 100 | Plant response rating, Kochia (kochia (Kochia scoparia); [12]): 0 | Plant response rating, Kochia (kochia (Kochia scoparia); [13]): 45 | Plant response rating, Kochia (kochia (Kochia scoparia); [14]): 45 | Kochia plant response rating (kochia (Kochia scoparia); [15]): 50 | Plant response rating, Kochia (kochia (Kochia scoparia); [16]): 15 | Plant response rating, Kochia (kochia (Kochia scoparia); [17]): 100 | Kochia plant response rating (kochia (Kochia scoparia); [18]): 100 | Plant response rating, Lambsquarters [4, 11]: 100 | Plant response rating, Lambsquarters [4, 12]: 0 | Plant response rating, Lambsquarters [4, 13]: 65 | Plant response rating, Lambsquarters [4, 14]: 65 | Lambsquarters plant response rating [4, 15]: 75 | Plant response rating, Lambsquarters [4, 16]: 100 | Plant response rating, Lambsquarters [4, 17]: 100 | Lambsquarters plant response rating [4, 18]: 100 | Plant response rating, Crabgrass, Large [5, 11]: 95 | Plant response rating, Crabgrass, Large [5, 12]: 30 | Plant response rating, Crabgrass, Large [5, 13]: 45 | Plant response rating, Crabgrass, Large [5, 14]: 45 | Crabgrass, Large plant response rating [5, 15]: 60 | Plant response rating, Crabgrass, Large [5, 16]: 0 | Plant response rating, Crabgrass, Large [5, 17]: 0 | Crabgrass, Large plant response rating [5, 18]: 45 | Plant response rating, Nightshade ([6]; 250 g ai/ha, 0 to 100 scale): 100 | Plant response rating, Nightshade [6, 19]: 80 | Plant response rating, Nightshade [6, 20]: 90 | Nightshade plant response rating ([6]; 0 to 100 scale): 95 | Plant response rating, Sunflower ([7]; 250 g ai/ha, 0 to 100 scale): 25 | Plant response rating, Sunflower [7, 19]: 0 | Plant response rating, Sunflower [7, 20]: 0 | Sunflower plant response rating ([7]; 0 to 100 scale): 0 | Plant response rating, Oat, Wild (wild oat (Avena fatua); [11]): 0 | Plant response rating, Oat, Wild (wild oat (Avena fatua); [12]): 0 | Plant response rating, Oat, Wild (wild oat (Avena fatua); [13]): 0 | Plant response rating, Oat, Wild (wild oat (Avena fatua); [14]): 0 | Oat, Wild plant response rating (wild oat (Avena fatua); [15]): 10 | Plant response rating, Oat, Wild (wild oat (Avena fatua); [16]): 0 | Plant response rating, Oat, Wild (wild oat (Avena fatua); [17]): 0 | Oat, Wild plant response rating (wild oat (Avena fatua); [18]): 0 | Plant response rating, Cupgrass, Woolly [8, 11]: 45 | Plant response rating, Cupgrass, Woolly [8, 12]: 0 | Plant response rating, Cupgrass, Woolly [8, 13]: 50 | Plant response rating, Cupgrass, Woolly [8, 14]: 50 | Cupgrass, Woolly plant response rating [8, 15]: 65 | Plant response rating, Cupgrass, Woolly [8, 16]: 0 | Plant response rating, Cupgrass, Woolly [8, 17]: 0 | Cupgrass, Woolly plant response rating [8, 18]: 0 | Plant response rating, Nutsedge, Yellow [9, 11]: 55 | Plant response rating, Nutsedge, Yellow [9, 12]: 0 | Plant response rating, Nutsedge, Yellow [9, 13]: 0 | Plant response rating, Nutsedge, Yellow [9, 14]: 0 | Nutsedge, Yellow plant response rating [9, 15]: 0 | Plant response rating, Nutsedge, Yellow [9, 16]: 0 | Plant response rating, Nutsedge, Yellow [9, 17]: 10 | Nutsedge, Yellow plant response rating [9, 18]: 15 | Plant response rating, Goosegrass [10]: 25

— patent US8952024B2, “Herbicidal pyrimidone derivatives” (E I du Pont de Nemours and Company, priority 2009, dated 2015)
